From ChEMBL document CHEMBL1154658, “Novel macrocyclic inhibitors of hepatitis C NS3/4A protease featuring a 2-amino-1,3-thiazole as a P4 carbamate replacement” (J Med Chem, 2009)

What was measured:
[1] = tested on: Hepatitis C virus; experiment: Inhibition of HCV 1b NS3/4A protease by time-resolved fluorescence assay; parameters: species or system Hepatitis C virus subtype 1b
[2] = tested on: Hepatitis C virus; experiment: Antiviral activity against HCV 1b infected in human Huh7 cells by bicistronic replicon RNA assay in presence of 10% fetal bovine serum; format: functional, organism-based, Hepacivirus hominis; conditions: genotype 1b, Huh-7
[3] = tested on: Hepatitis C virus; experiment: Antiviral activity against HCV 1b infected in human Huh7 cells by bicistronic replicon RNA assay in presence of 50% normal human serum; format: functional, organism-based, Hepacivirus hominis; conditions: genotype 1b, Huh-7
[4] = (§1) AUC (0 to 4 hrs) in Sprague-Dawley rat at 5 mg/kg, po; format: ADME, organism-based, Plasma; parameters: time < 4 hr, dose 5 mg/kg, route oral; conditions: Sprague-Dawley, plasma
[5] = Drug level in Sprague-Dawley rat liver at 5 mg/kg, po after 4 hrs; format: ADME, organism-based; parameters: dose 5 mg/kg, route oral; conditions: read-out: Drug uptake
[6] = Drug level in Sprague-Dawley rat liver at 4 mg/kg, po after 4 hrs; format: ADME, organism-based; parameters: dose 4 mg/kg, route oral; conditions: read-out: Drug uptake
[7] = Oral bioavailability in Sprague-Dawley rat at 4 mg/kg; format: ADME, organism-based; conditions: in vivo
[8] = (§2) Plasma clearance in Sprague-Dawley rat at 4 mg/kg, po; format: ADME, organism-based; parameters: dose 4 mg/kg, route oral; conditions: Sprague-Dawley, plasma
[9] = (§3) AUC (0 to 4 hrs) in Sprague-Dawley rat at 4 mg/kg, po; format: ADME, organism-based, Plasma; parameters: time < 4 hr, dose 4 mg/kg, route oral; conditions: Sprague-Dawley, plasma
[10] = tested on: Rattus norvegicus; experiment: Plasma clearance in Sprague-Dawley rat at 5 mg/kg, po; format: ADME, organism-based; parameters: dose 5 mg/kg, route oral; conditions: in vivo
[11] = tested on: Rattus norvegicus; experiment: as §1; format: ADME, organism-based, Plasma; parameters: time < 4 hr, dose 5 mg/kg, route oral; conditions: in vivo, 4 h
[12] = Oral bioavailability in Sprague-Dawley rat at 5 mg/kg; format: ADME, organism-based; conditions: in vivo
[13] = Selectivity for HCV NS3/4A protease over trypsin
[14] = Selectivity for HCV NS3/4A protease over chymotrypsin
[15] = tested on: Rattus norvegicus; experiment: as §2; format: ADME, organism-based; parameters: dose 4 mg/kg, route oral; conditions: in vivo
[16] = tested on: Rattus norvegicus; experiment: as §3; format: ADME, organism-based, Plasma; parameters: time < 4 hr, dose 4 mg/kg, route oral; conditions: in vivo, 4 h
[17] = Inhibition of HCV 2a NS3/4A protease; parameters: species or system Hepatitis C virus subtype 2a
[18] = Inhibition of HCV 3a NS3/4A protease; parameters: species or system Hepatitis C virus subtype 3a
[19] = Inhibition of HCV NS3/4A protease; parameters: species or system Hepacivirus hominis
[20] = Plasma clearance in Sprague-Dawley rat at 4 mg/kg, iv; format: ADME, organism-based; parameters: dose 4 mg/kg, route intravenous
[21] = AUC in Sprague-Dawley rat at 4 mg/kg, iv; format: ADME, organism-based; parameters: dose 4 mg/kg, route intravenous; conditions: plasma
[22] = Cmax in Sprague-Dawley rat at 4 mg/kg, iv; format: ADME, organism-based; parameters: dose 4 mg/kg, route intravenous; conditions: in vivo
[23] = Bioavailability in Sprague-Dawley rat at 4 mg/kg, iv; format: ADME, organism-based; conditions: in vivo

C=C[C@@H]1C[C@]1(NC(=O)[C@@H]1C[C@@H]2CN1C(=O)[C@H](C(C)(C)C)NC(=O)OCCCCCc1ccc3ccnc(c3c1)O2)C(=O)NS(=O)(=O)C1CC1
Ki [1]: 0.2 nM | EC50 [2]: 8.7 nM | EC50 [3]: 46 nM | AUC(0-t) at 4 h [4]: 0.27 µM·h | concentration at 4 h [5]: 13400 nM

CCC1C[C@]1(NC(=O)[C@@H]1C[C@@H]2CN1C(=O)[C@H](C1CCCCC1)Nc1nc(cs1)CCC/C=C/c1cccc3c1CN(C3)C(=O)O2)C(=O)NS(=O)(=O)C1CC1.O=C(O)C(F)(F)F (single isomer, unassigned)
concentration at 4 h [6]: 570 nM | Ki [1]: 0.16 nM | EC50 [2]: 12 nM | EC50 [3]: 50 nM | bioavailability [7]: < 0.01% | CL/F [8]: 56 mL/min/kg | AUC(0-t) at 4 h [9]: < 0.01 µM·h

C=C[C@@H]1C[C@]1(NC(=O)[C@@H]1C[C@@H]2CN1C(=O)[C@H](C(C)(C)C)Nc1nc(cs1)CCCCCc1cccc3c1CN(C3)C(=O)O2)C(=O)NS(=O)(=O)C1CC1.O=C(O)C(F)(F)F
CL [10]: 95 mL/min/kg | Ki [1]: 0.16 nM | EC50 [2]: 4 nM | EC50 [3]: 19 nM | AUC [11]: 0.06 µM·h | concentration at 4 h [5]: 60 nM | bioavailability [12]: 5%

C=C[C@@H]1C[C@]1(NC(=O)[C@@H]1C[C@@H]2CN1C(=O)[C@H](C(C)C)Nc1nc(cs1)C(C)(C)CCCc1ccc3ccnc(c3c1)O2)C(=O)NS(=O)(=O)C1CC1.O=C(O)C(F)(F)F
Ki [1]: 3 nM | EC50 [2]: 20 nM | EC50 [3]: 100 nM | AUC(0-t) at 4 h [4]: 0.8 µM·h | concentration at 4 h [5]: 3600 nM

C=C[C@@H]1C[C@]1(NC(=O)[C@@H]1C[C@@H]2CN1C(=O)[C@H]([C@@H](C)CC)Nc1nc(cs1)CCC/C=C/c1cccc3c1CN(C3)C(=O)O2)C(=O)NS(=O)(=O)C1CC1
fold change (FC) [13]: > 15000 | fold change (FC) [14]: > 15000

C=C[C@@H]1C[C@]1(NC(=O)[C@@H]1C[C@@H]2CN1C(=O)[C@H](C(C)(C)C)Nc1nc(cs1)CCC/C=C/c1cccc3c1CN(C3)C(=O)O2)C(=O)NS(=O)(=O)C1CC1.O=C(O)C(F)(F)F
concentration at 4 h [6]: 130 nM | Ki [1]: 0.16 nM | EC50 [2]: 3 nM | EC50 [3]: 23 nM | bioavailability [7]: 6% | CL [15]: 85 mL/min/kg | AUC [16]: 0.06 µM·h

C=C[C@@H]1C[C@]1(NC(=O)[C@@H]1C[C@@H]2CN1C(=O)[C@H]([C@@H](C)CC)Nc1nc(cs1)CCC/C=C/c1cccc3c1CN(C3)C(=O)O2)C(=O)NS(=O)(=O)C1CC1.O=C(O)C(F)(F)F
concentration at 4 h [6]: 350 nM | Ki [17]: 0.4 nM | Ki [18]: 45 nM | Ki [19]: 4 nM | Ki [1]: 0.04 nM | EC50 [2]: 2 nM | EC90 [2]: 3 nM | EC50 [3]: 18 nM | EC90 [3]: 40 nM | bioavailability [7]: 13% | CL/F [8]: 17 mL/min/kg | clearance [20]: 17 mL/min/kg | AUC [21]: 0.7 µM·h | Cmax [22]: 400 nM | bioavailability [23]: 13% | AUC(0-t) at 4 h [9]: 0.7 µM·h

C=C[C@@H]1C[C@]1(NC(=O)[C@@H]1C[C@@H]2CN1C(=O)[C@H](C(C)C)Nc1nc(cs1)CCC/C=C/c1cccc3c1CN(C3)C(=O)O2)C(=O)NS(=O)(=O)C1CC1.O=C(O)C(F)(F)F
CL [10]: 21 mL/min/kg | Ki [1]: 0.16 nM | EC50 [2]: 5 nM | EC50 [3]: 50 nM | AUC [11]: 0.4 µM·h | concentration at 4 h [5]: 600 nM | bioavailability [12]: 8%

C=C[C@@H]1C[C@]1(NC(=O)[C@@H]1C[C@@H]2CN1C(=O)[C@H](C(C)C)NC1=NN=C(CCCCc3ccc4ccnc(c4c3)O2)O1)C(=O)NS(=O)(=O)C1CC1
Ki [1]: 0.9 nM | EC50 [2]: 80 nM | EC50 [3]: 180 nM | AUC(0-t) at 4 h [4]: 0.1 µM·h | concentration at 4 h [5]: 30 nM
